Results on 2 compounds are retold here after PMC12442081, “Combating Fuel Biocontamination: Tailored Antimicrobial Peptides and an Innovative Delivery Strategy” (ACS Applied Bio Materials, 2025).

Where no end group is shown, it is not given here.

In general, MIC refers to the lowest concentration found to suppress growth.

The test system of series [1] is BL+DN coculture. It is filed as cell-based, B. licheniformis + D. nishinomiyaensis. The protocol: (§1) All of the bacterial species were grown overnight at 37 °C in LB broth. 10^7 CFU/mL of cells were resuspended in fresh culture and grown until the mid log phase. , The bacterial cells were adjusted to a concentration of 5 × 10^5 CFU/mL to quantify the MIC. Equal volumes of the respective bacterial cultures were incubated with the serially diluted peptides in 96-well microtiter plate and incubated overnight at 37 °C in ambient air. Microorganisms without peptides were treated as the positive control, while uninoculated broth was used as the negative control. The MIC was taken as the lowest peptide concentration at which observable bacteria growth was inhibited, as measured by a microplate reader (Biotek Synergy H1 microplate reader). Experiments were performed in triplicates, and the mean MIC values were determined. A similar study was performed to understand the effect of peptide purity, i.e., ranging from 70 to 95%, on the peptide MIC. […]
(§2) fresh medium at equal proportions (v/v). Multiple combinations of microbial cocultures were prepared […]
(§3) Table S2. Schematic representation of the microbial cocultures grown in lab.
(§4) Bacterial clusters Fungal clusters
(§5) Gram-positive Gram-negative
(§6) Actinobacteria/DN Firmicutes/BL Proteobacteria/SP Ascomycota/HR […]
(§7) (b) The three upper panels […]
(§8) controlling the growth of microbial cocultures.

Series [2] concerns B. licheniformis. It counts as cell-based, Bacillus licheniformis. The settings on record: 2 h. The protocol: (§9) The stability of the peptides against one Gram-positive (B. licheniformis) and Gram-negative (S. paucimobilis) bacteria was assessed by determining their MIC in chymotrypsin (protease), serum, and salt (NaCl). The experiments were adopted from Selvarajan et.al. The fold change in MIC with respect to the control was calculated and determined for each peptide against the microbial clusters.
(§10) To determine the susceptibility of the engineered peptides, which are abundant in Trp, to protease degradation, chymotrypsin, which cleaves Tyr, Phe, and Trp at physiological pH was chosen as the model protease. The protocol described by Wang et.al. (2014) was used with slight modifications. Peptides were incubated with chymotrypsin at a molar ratio of 40:1 (peptide: protease) in 10 mM PBS buffer (pH7.4) at 37 °C, and samples were analyzed after 2 h. The enzyme reaction was terminated by incubating the samples at 80 °C for 10 min. The incubated peptide mixtures were then serially diluted in 96-well plates to determine the MIC values of the microbial strains.
(§11) The stability of the peptides in the presence of the serum was tested using a 10% fetal bovine serum (heat inactivated).
(§12) We also studied the effects of 600 mM NaCl (in vitro) and natural seawater (NSW) on the MICs of the engineered peptides.

Series [3] deals with HR+SP coculture. It is filed as cell-based, H. resinae + S. paucimobilis. As for the experimental part: as §1, §2, §3, §4, §5, §6, §7, §8
For series [4], the system named is HR+BL+SP coculture. It counts as cell-based, H. resinae + B. licheniformis + S. paucimobilis. The protocol: as §1, §2, §3, §4, §5, §6, §7, §8
For series [5], the system named is HR+DN+SP coculture. It counts as cell-based, H. resinae + D. nishinomiyaensis + S. paucimobilis. The protocol: as §1, §2, §3, §4, §5, §6, §7, §8
Series [6] deals with HR+BL+DN coculture. It is filed as cell-based, H. resinae + B. licheniformis + D. nishinomiyaensis. The protocol:
as §1, §2, §3, §4, §5, §6, §7, §8

Series [7] concerns Macrococcus caseolyticus (MC) ATCC 13548. It is filed as cell-based. The method, boiled down: (§13)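 Bacteria grown overnight at 37 °C in LB, subcultured to mid-log, then adjusted to 5 × 10^5 CFU/mL and mixed with equal volumes of serially diluted peptide. After overnight incubation at 37 °C in ambient air, MIC was the lowest concentration inhibiting growth by plate-reader measurement; mean of triplicates.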

Series [8] concerns Dermacoccus nishinomiyaensis (DN) ATCC 29093. It is filed as cell-based. The method, boiled down: as §13
For series [9], the system named is Bacillus licheniformis (BL) ATCC 14580. It is filed as cell-based. The following applies: ATCC 14580. The method, boiled down: as §13
Series [10] deals with Sphingomonas paucimobilis (SP). It is filed as cell-based. The method, boiled down: as §13
Series [11] relates to Micrococcus yunnanensis (MY) ATCC 12698. It counts as cell-based. A digest of the protocol: as §13
Series [12] concerns Pseudomonas aeruginosa (PA) ATCC 39327. It counts as cell-based. The settings on record: ATCC 39327. The method, boiled down: as §13
The subject of series [13] is SP+BL coculture. It counts as cell-based, S. paucimobilis + B. licheniformis. As for the experimental part:
as §1, §2, §3, §4, §5, §6, §7, §8

Series [14] relates to HR+BL coculture. It counts as cell-based, H. resinae + B. licheniformis. As for the experimental part:
as §1, §2, §3, §4, §5, §6, §7, §8

The test system of series [15] is HR+DN coculture. It counts as cell-based, H. resinae + D. nishinomiyaensis. The protocol:
as §1, §2, §3, §4, §5, §6, §7, §8

Series [16] deals with S. paucimobilis. It is filed as cell-based, Sphingomonas paucimobilis. The settings on record: 2 h. The protocol:
as §9, §10, §11, §12

The test system of series [17] is DN+SP coculture. It counts as cell-based, D. nishinomiyaensis + S. paucimobilis. As for the experimental part: as §1, §2, §3, §4, §5, §6, §7, §8
Series [18] deals with microbial clusters MY, KR, DN, MC, BL, RM, SP, PA, HR. Description: Broad-spectrum activity score (in-house scoring matrix). The settings on record: sum over 9 microbial clusters: (+) = 1, (X) = 0, Fuel x = -1. A digest of the protocol:
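Each peptide is scored per microbial cluster from its MIC/efficacy with fuel co-incubation: +1 = active in the fuel environment, 0 = no activity in the desired range (microbial proliferation), −1 = no activity in the fuel environment. The score is built from these per-cluster points.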

The subject of series [19] is Roseomonas mucosa (RM) ATCC BAA-692. It counts as cell-based. A digest of the protocol: as §13
Series [20] can be described thus: HPLC retention time as a function of peptide hydrophobicity. It counts as physicochemical. The settings on record: chromatographic, Polaris 5 C18-A reverse phase, 0.1% TFA water / 0.1% TFA acetonitrile gradient, 30 min, 300 μM peptide. A digest of the protocol: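 Reverse-phase C18 HPLC used water and acetonitrile, each with 0.1% (v/v) TFA, under a constant gradient run for 30 min after injection. Samples were 300 μM peptide in acetonitrile–water (1:4).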

Series [21] relates to Dermacoccus nishinomiyaensis (DN). Description: Effectiveness of peptides on spiked fuel samples (aqueous layer). The following applies: initial screening in spiked fuel. Also on record: key: (+) =1 (implying peptide activity in fuel environment); (X) = 0 (implying no activity in the desired range, indicated by microbial proliferation); Fuel x = -1(implying no activity in fuel environment). It counts as cell-based. The method, boiled down: (§14)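 Fuel:BH 1:1 v/v, cells seeded in bottom aqueous phase; peptide at MIC added to aqueous layer; aerobic, 30 °C, 30 d; plating of aqueous + fuel layers d7/14/21/30 for viable counts.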

In series [22] the test system is Kocuria rosea (KR). Described as above. The settings on record: initial screening in spiked fuel. Also on record: key: (+) =1 (implying peptide activity in fuel environment); (X) = 0 (implying no activity in the desired range, indicated by microbial proliferation); Fuel x = -1(implying no activity in fuel environment). It is filed as cell-based. A digest of the protocol:
as §14

Series [23] concerns Micrococcus yunnanensis (MY). The description is as above. It counts as cell-based. Details: key: (+) =1 (implying peptide activity in fuel environment); (X) = 0 (implying no activity in the desired range, indicated by microbial proliferation); Fuel x = -1(implying no activity in fuel environment). The following applies: initial screening in spiked fuel. A digest of the protocol: as §14

For series [24], the system named is Sphingomonas paucimobilis (SP). Described as above. It counts as cell-based. Details: key: (+) =1 (implying peptide activity in fuel environment); (X) = 0 (implying no activity in the desired range, indicated by microbial proliferation); Fuel x = -1(implying no activity in fuel environment). The following applies: initial screening in spiked fuel. A digest of the protocol: as §14

The test system of series [25] is Roseomonas mucosa (RM). The series is described as above. It is filed as cell-based. Details: key: (+) =1 (implying peptide activity in fuel environment); (X) = 0 (implying no activity in the desired range, indicated by microbial proliferation); Fuel x = -1(implying no activity in fuel environment). The settings on record: initial screening in spiked fuel. A digest of the protocol:
as §14

The test system of series [26] is Bacillus licheniformis (BL). Described as above. It counts as cell-based. Details: key: (+) =1 (implying peptide activity in fuel environment); (X) = 0 (implying no activity in the desired range, indicated by microbial proliferation); Fuel x = -1(implying no activity in fuel environment). The settings on record: initial screening in spiked fuel. The method, boiled down: as §14

For series [27], the system named is Macrococcus caseolyticus (MC). Described as above. The following applies: initial screening in spiked fuel. It counts as cell-based. Details: key: (+) =1 (implying peptide activity in fuel environment); (X) = 0 (implying no activity in the desired range, indicated by microbial proliferation); Fuel x = -1(implying no activity in fuel environment). A digest of the protocol: as §14

For series [28], the system named is Hormoconis resinae (HR). Described as above. It is filed as cell-based. Also on record: key: (+) =1 (implying peptide activity in fuel environment); (X) = 0 (implying no activity in the desired range, indicated by microbial proliferation); Fuel x = -1(implying no activity in fuel environment). The settings on record: initial screening in spiked fuel. The method, boiled down: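 Peptides are applied at MIC to the aqueous layer of microbially spiked fuel–BH medium mixtures (1:1 v/v). Incubation runs aerobically at 30 °C for up to 30 days. Growth is tracked by plating samples from both phases on agar at weekly intervals.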

Series [29] has as its system Pseudomonas aeruginosa (PA). The description is as above. It counts as cell-based. Also on record: key: (+) =1 (implying peptide activity in fuel environment); (X) = 0 (implying no activity in the desired range, indicated by microbial proliferation); Fuel x = -1(implying no activity in fuel environment). The following applies: initial screening in spiked fuel. The method, boiled down:
as §14

Series [30] relates to Hormoconis resinae (HR) ATCC 20267. It counts as cell-based. The protocol: All of the bacterial species were grown overnight at 37 °C in LB broth. 10^7 CFU/mL of cells were resuspended in fresh culture and grown until the mid log phase. , The bacterial cells were adjusted to a concentration of 5 × 10^5 CFU/mL to quantify the MIC. Equal volumes of the respective bacterial cultures were incubated with the serially diluted peptides in 96-well microtiter plate and incubated overnight at 37 °C in ambient air. Microorganisms without peptides were treated as the positive control, while uninoculated broth was used as the negative control. The MIC was taken as the lowest peptide concentration at which observable bacteria growth was inhibited, as measured by a microplate reader (Biotek Synergy H1 microplate reader). Experiments were performed in triplicates, and the mean MIC values were determined. A similar study was performed to understand the effect of peptide purity, i.e., ranging from 70 to 95%, on the peptide MIC.
The same experimental procedures that were conducted for the antibacterial assay were used to determine the MIC of the peptides against the fungal strain, H. resinae.

As for `CC[C@H](C)[C@H](N)C(=O)N[C@@H](CC(C)C)C(=O)N1CCC[C@H]1C(=O)N[C@@H](Cc1ccccc1)C(=O)N[C@@H](CCCCN)C(=O)N[C@@H](Cc1c[nH]c2ccccc12)C(=O)N1CCC[C@H]1C(=O)N[C@@H](Cc1c[nH]c2ccccc12)C(=O)N[C@@H](Cc1c[nH]c2ccccc12)C(=O)N1CCC[C@H]1C(=O)N[C@@H](Cc1c[nH]c2ccccc12)C(=O)N[C@@H](CCCNC(=N)N)C(=O)N[C@@H](CCCNC(=N)N)C(=O)O` [P11], the MIC in series [1] is 60 µM; in series [3], 30 µM; in series [4], 1.87 µM; in [5], 3.7 µM; in [6] it was 1.87 µM; in [7] it was 0.9 µM. Also, the MIC in series [8] is 0.9 µM; in series [9], 1.9 µM; in [10], 1.9 µM; in [11] it was 0.9 µM; in series [12], 1.9 µM; in series [13], 120 µM. For the same compound, the MIC was 3.7 µM in [14], 1.87 µM in [15] and 30 µM in series [17]. Further, the “MIC under different treatments” value in series [2] and in series [16] was no more than 4 µM throughout.
ILPWKWPFWPWRR [P7] had a Score in series [18] of 3. Also, the MIC in series [9] is 0.9 µM; in series [10], 0.9 µM; in series [19] it was 0.9 µM; in series [11], 0.9 µM; in [12], 31.25 µM; in series [30], 1.95 µM. The “R t, retention time of peptide on HPLC column as a function of peptide hydrophobicity” value in series [20] is given as 12.156 min. The “activity considering MIC value/efficacy upon fuel co-incubation” value was “X” in series [21]; “X” in [22]; “+” in series [23]; “+” in series [24]; “+” in series [25]; “+” in series [26]. For the same compound, the entries for the “activity considering MIC value/efficacy upon fuel co-incubation” value in series [27], in series [28] and in series [29] were “X”, “Fuel x” and “X”, respectively.
